# Assay results published in ChEMBL document CHEMBL3997802, “Design, Synthesis, and Evaluation of Isaindigotone Derivatives To Downregulate c-myc Transcription via Disrupting the Interaction of NM23-H2 with G-Quadruplex” (J Med Chem, 2017).
# Active and inactive are the calls of the source. The rule behind the calls is not given here.
# How the values were obtained:
# [1] = target: T1, Nucleoside diphosphate kinase B (Homo sapiens, UniProt P22392); assay: Binding affinity to NT647-labeled His-tagged NM23-H2 (unknown origin) expressed in Escherichia coli BL21(DE3) up to 500 uM after 30 mins by microscale thermophoresis method
# T1 sequence (P22392 whole entry): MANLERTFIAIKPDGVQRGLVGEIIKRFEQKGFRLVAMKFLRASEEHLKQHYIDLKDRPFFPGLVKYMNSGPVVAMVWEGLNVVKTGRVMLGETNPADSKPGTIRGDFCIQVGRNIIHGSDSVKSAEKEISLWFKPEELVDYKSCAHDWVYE
# [2] = (§1) Inhibition of 5'-biotin-labeled c-Myc Pu18 G-quadruplex DNA (unknown origin) interaction with His-tagged NM23-H2 at 20 uM preincubated with NM23-H2 for 1 hr followed by addition of DNA measured after overnight incubation by ELISA
# [3] = as §1, with “His-tagged NM23-H2 assessed as ratio of Kd for NM23-H2-DNA complex in presence of compound to Kd for […]-DNA complex in absence of compound at 20” for “His-tagged NM23-H2 at 20”
# [4] = Inhibition of thiazole orange binding to c-Myc Pu27 G-quadruplex DNA (unknown origin) at 10 uM after 30 secs by fluorescence spectrophotometric method
# [5] = Inhibition of thiazole orange binding to c-Myc Pu18 G-quadruplex DNA (unknown origin) at 10 uM after 30 secs by fluorescence spectrophotometric method
# [6] = Stabilization of 5'-FAM/3'-TAMRA labeled c-Myc Pu18 G-quadruplex DNA (unknown origin) assessed as change in melting temperature at 1 uM after overnight incubation by FRET assay
# [7] = target: T1, Nucleoside diphosphate kinase B; assay: Binding affinity to NT647-labeled His-tagged NM23-H2 (unknown origin) expressed in Escherichia coli BL21(DE3) after 30 mins by microscale thermophoresis method
# [8] = organism: Homo sapiens; assay: Inhibition of NM23-H2 binding to c-Myc promoter DNA in human SiHa cell nuclear extract at 1.3 to 2.6 uM after 4 days by ChIP analysis
# [9] = organism: Homo sapiens; assay: Inhibition of NM23-H2 binding to c-Myc promoter DNA in human SiHa cell nuclear extract at 4.85 to 9.7 uM after 4 days by ChIP analysis
Structure (SMILES),inhibition [2],Ratio [3],other results
CN1CCN(c2cc3nc4n(c(=O)c3cc2F)CC/C4=C\c2ccc(NC(=O)CN3CCCC3)cc2)CC1,–,–,Activity [1]: Active
CN(C)CCCNC(=O)c1ccc(/C=C2\CCn3c2nc2cc(N4CCN(C)CC4)c(F)cc2c3=O)cc1,Active,–,–
CCN(CC)CCC(=O)Nc1ccc(/C=C2\CCn3c2nc2cc(N4CCN(C)CC4)c(F)cc2c3=O)cc1,–,1.4,–
CN1CCN(c2cc3nc4n(c(=O)c3cc2F)CCC/C4=C\c2ccc(C(=O)NCCN3CCCC3)cc2)CC1,Active,–,–
CN1CCN(c2cc3nc4n(c(=O)c3cc2F)CC/C4=C\c2ccc(NC(=O)CCN3CCCC3)cc2)CC1,Active,1.6,–
CCN(CC)CCNC(=O)c1ccc(/C=C2\CCn3c2nc2cc(N4CCN(C)CC4)c(F)cc2c3=O)cc1,–,2.7,–
O=C(NCCN1CCCC1)c1ccc(/C=C2\CCn3c2nc2cc(NCCCN4CCCC4)c(F)cc2c3=O)cc1,Active,–,inhibition [4]: Active; inhibition [5]: Active
CCN(CC)CCNC(=O)c1ccc(/C=C2\CCn3c2nc2cc(NCCN4CCCC4)c(F)cc2c3=O)cc1,Active,–,inhibition [4]: Active; inhibition [5]: Active
CN1CCN(c2cc3nc4n(c(=O)c3cc2F)CCC/C4=C\c2ccc(NC(=O)CN3CCN(CCO)CC3)cc2)CC1,–,< 1.4,Activity [1]: Active
O=C(CCN1CCCCC1)Nc1ccc(/C=C2\CCn3c2nc2cc(N4CCCCC4)c(F)cc2c3=O)cc1,–,1.4 to 4.3,–
O=C(NCCCN1CCCC1)c1ccc(/C=C2\CCn3c2nc2cc(NCCCN4CCCC4)c(F)cc2c3=O)cc1,Active,–,inhibition [4]: Active; inhibition [5]: Active
O=C(CCN1CCCC1)Nc1ccc(/C=C2\CCCn3c2nc2cc(NC(=O)CCN4CCCC4)ccc2c3=O)cc1,–,2.4,ΔTm [6]: 3.4 °C; Kd [7]: 22.1 µM
CN1CCN(c2cc3nc4n(c(=O)c3cc2F)CC/C4=C\c2ccc(NC(=O)CCN3CCCCC3)cc2)CC1,Active,–,–
CN1CCN(c2cc3nc4n(c(=O)c3cc2F)CCC/C4=C\c2ccc(NC(=O)CCN3CCCCC3)cc2)CC1,Active,–,–
CN1CCN(c2cc3nc4n(c(=O)c3cc2F)CCC/C4=C\c2ccc(NC(=O)CCN3CCN(CCO)CC3)cc2)CC1,–,–,Activity [1]: Active
CCN(CC)CCC(=O)Nc1ccc(/C=C2\CCn3c2nc2cc(N4CCCCC4)c(F)cc2c3=O)cc1,–,1.4 to 4.3,–
CCN(CC)CCNC(=O)c1ccc(/C=C2\CCCn3c2nc2cc(N4CCN(C)CC4)c(F)cc2c3=O)cc1,Active,–,–

Structure (SMILES),inhibition [2],Ratio [3],other results
CCN(CC)CCCNC(=O)c1ccc(/C=C2\CCn3c2nc2cc(NCCCN4CCCC4)c(F)cc2c3=O)cc1,Active,–,inhibition [4]: Active; inhibition [5]: Active
CN1CCN(c2cc3nc4n(c(=O)c3cc2F)CC/C4=C\c2ccc(C(=O)NCCN3CCCCC3)cc2)CC1,–,1.4 to 4.3,–
CN1CCN(c2cc3nc4n(c(=O)c3cc2F)CC/C4=C\c2ccc(C(=O)NCCCN3CCCC3)cc2)CC1,Active,–,–
CN(C)CCNC(=O)c1ccc(/C=C2\CCn3c2nc2cc(N4CCN(C)CC4)c(F)cc2c3=O)cc1,Active,–,Activity [1]: Active
O=C(NCCN1CCCC1)c1ccc(/C=C2\CCn3c2nc2cc(NCCN4CCCC4)c(F)cc2c3=O)cc1,Active,–,inhibition [4]: Active; inhibition [5]: Active
CN1CCN(c2cc3nc4n(c(=O)c3cc2F)CCC/C4=C\c2ccc(C(=O)NCCN3CCCCC3)cc2)CC1,Active,–,–
CN1CCN(c2cc3nc4n(c(=O)c3cc2F)CC/C4=C\c2ccc(C(=O)NCCN3CCCC3)cc2)CC1,Active,–,–
CN1CCN(c2cc3nc4n(c(=O)c3cc2F)CC/C4=C\c2ccc(C(=O)NCCCN3CCCCC3)cc2)CC1,Active,–,–
CCN(CC)CCCNC(=O)c1ccc(/C=C2\CCn3c2nc2cc(N4CCN(C)CC4)c(F)cc2c3=O)cc1,Active,–,–
CCN(CC)CCC(=O)Nc1ccc(/C=C2\CCCn3c2nc2cc(N4CCN(C)CC4)c(F)cc2c3=O)cc1,Active,–,–
O=C(CCN1CCCC1)Nc1ccc(/C=C2\CCn3c2nc2cc(NC(=O)CCN4CCCC4)ccc2c3=O)cc1,–,2.5,ΔTm [6]: 8.5 °C; Activity [1]: inactive
CN1CCN(c2cc3nc4n(c(=O)c3cc2F)CC/C4=C\c2ccc(NC(=O)CN3CCN(CCO)CC3)cc2)CC1,Active,–,Activity [1]: Active
CCN(CC)CCCNC(=O)c1ccc(/C=C2\CCn3c2nc2cc(NCCN4CCCC4)c(F)cc2c3=O)cc1,Active,–,inhibition [4]: Active; inhibition [5]: Active
CN1CCN(c2cc3nc4n(c(=O)c3cc2F)CCC/C4=C\c2ccc(NC(=O)CCN3CCCC3)cc2)CC1,–,1.3,–
O=C(CCN1CCCC1)Nc1ccc(/C=C2\CCn3c2nc2cc(N4CCCCC4)c(F)cc2c3=O)cc1,–,1.4 to 4.3,inhibition [8]: inactive
CN1CCN(c2cc3nc4n(c(=O)c3cc2F)CC/C4=C\c2ccc(NC(=O)CCN3CCN(CCO)CC3)cc2)CC1,Active,–,Kd [7]: 1.8 µM; inhibition [9]: inactive
